In assay [1] the target is T1, Voltage-gated N-type calcium channel alpha-1B subunit/Amyloid beta A4 precursor protein-binding family A member 1 (Homo sapiens, UniProt Q00975+Q02410). In kind it is protein assay.
For assay [2], the target named is T1, Voltage-gated N-type calcium channel alpha-1B subunit/Amyloid beta A4 precursor protein-binding family A member 1. In kind it is protein assay. This is another data set of the same source.
Assay [3] can be described thus: HIV-1 Env-mediated cell fusion inhibitors, dose response, CCR5-tropic Env (AID 2279). The class given is functional.
The target of assay [4] is Induced myeloid leukemia cell differentiation protein Mcl-1 (Homo sapiens, UniProt Q07820). The class given is functional.
Assay [5] deals with T2, Long-chain-fatty-acid--AMP ligase FadD28 (Mycobacterium tuberculosis, UniProt P9WQ59).
T2 sequence (P9WQ59 whole entry): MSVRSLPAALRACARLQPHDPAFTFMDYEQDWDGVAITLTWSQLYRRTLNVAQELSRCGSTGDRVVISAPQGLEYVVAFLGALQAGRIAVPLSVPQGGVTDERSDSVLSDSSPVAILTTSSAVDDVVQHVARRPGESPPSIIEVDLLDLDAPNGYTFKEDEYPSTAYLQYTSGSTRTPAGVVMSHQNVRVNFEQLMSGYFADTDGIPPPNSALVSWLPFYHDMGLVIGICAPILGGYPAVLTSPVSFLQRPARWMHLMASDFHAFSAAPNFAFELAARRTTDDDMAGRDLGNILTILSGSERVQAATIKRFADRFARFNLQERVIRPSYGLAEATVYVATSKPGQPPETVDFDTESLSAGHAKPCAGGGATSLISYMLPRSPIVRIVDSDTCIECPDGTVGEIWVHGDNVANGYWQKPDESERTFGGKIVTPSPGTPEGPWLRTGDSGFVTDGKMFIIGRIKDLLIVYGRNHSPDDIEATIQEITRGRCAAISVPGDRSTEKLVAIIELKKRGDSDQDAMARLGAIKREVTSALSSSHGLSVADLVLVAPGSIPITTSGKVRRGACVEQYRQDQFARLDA
Kind of assay: Fluorescence polarization aasay to screen for inhibitors that compete for the binding of FadD28 to a bisubstrate Measured in Biochemical System Using Plate Reader - 2147-01_Inhibitor_Dose_CherryPick_Activity. In kind it is functional, Mycobacterium tuberculosis H37Rv. In general terms: In fluorescence polarisation assays a small probe gives low polarisation when free and higher when bound to something large.

Assay [6] addresses Intestinal-type alkaline phosphatase (Homo sapiens, UniProt P09923). The experiment in a line: human intestinal alkaline phosphatase activators, dose response, biochemical, luminescence, uHTS hits (AID 463120). In kind it is functional.
Assay [7] deals with T1, Voltage-gated N-type calcium channel alpha-1B subunit/Amyloid beta A4 precursor protein-binding family A member 1. Kind of assay: disruptors of Mint-PDZ/N-type channel peptide interaction – biochemical, HTRF, SAR follow-up (AID 2489). In kind it is functional. (In general: TR-FRET usually uses a lanthanide donor and a delayed reading to cut background.)
The target in assay [8] is Peroxisome proliferator-activated receptor gamma/Nuclear receptor coactivator 2 (Homo sapiens, UniProt P37231). Kind of assay: TR-FRET dose response biochemical High Throughput Screening assay for agonists of the steroid receptor coactivator 2 (SRC-2) recruitment by the peroxisome proliferator-activated receptor gamma (PPAR gamma): non-selective agonists. [Related pubchem assays: 1297, 1032 ]. The class given is functional.

The target in assay [9] is Peroxisome proliferator-activated receptor gamma/Nuclear receptor coactivator 1 (Homo sapiens, UniProt P37231). Kind of assay: TR-FRET dose response biochemical High Throughput Screening assay for agonists of the steroid receptor coactivator 1 (SRC-1) recruitment by the peroxisome proliferator-activated receptor gamma (PPAR gamma): non-selective agonists. [Related pubchem assays (depositor defined):AID1300, AID1808, AID504735, AID631]. In kind it is protein assay.

The target in assay [10] is Peroxisome proliferator-activated receptor gamma/Nuclear receptor coactivator 3 (Homo sapiens, UniProt P37231). Kind of assay: TR-FRET dose response biochemical High Throughput Screening assay for agonists of the steroid receptor coactivator 3 (SRC-3) recruitment by the peroxisome proliferator-activated receptor gamma (PPAR gamma): non-selective agonists. [Related pubchem assays: 1301 (Confirmation screen.), 1048 (Primary screen.)]. In kind it is functional.

For assay [11], the target named is T3, E3 ubiquitin-protein ligase XIAP (Homo sapiens, UniProt P98170). The experiment in a line: XIAP antagonists, biochemical, IAP family, fluorescence polarization (AID 1018). In kind it is functional.
Assay [12] has as its target T3, E3 ubiquitin-protein ligase XIAP. The experiment in a line: Counter Screen using XIAP-Bir3 for Chemical Antagonists of Bir1/2 domains of IAP-family anti-apoptotic proteins. [Related pubchem assays (depositor defined):AID1018, AID1449, AID1514, AID1638, AID1749, AID1750, AID488957, AID488963]. Background: Counterscreens check selectivity or assay interference.
Assay [13] addresses T4, Calpain-2 catalytic subunit (Sus scrofa, UniProt P43367).
T4 sequence (P43367 whole entry): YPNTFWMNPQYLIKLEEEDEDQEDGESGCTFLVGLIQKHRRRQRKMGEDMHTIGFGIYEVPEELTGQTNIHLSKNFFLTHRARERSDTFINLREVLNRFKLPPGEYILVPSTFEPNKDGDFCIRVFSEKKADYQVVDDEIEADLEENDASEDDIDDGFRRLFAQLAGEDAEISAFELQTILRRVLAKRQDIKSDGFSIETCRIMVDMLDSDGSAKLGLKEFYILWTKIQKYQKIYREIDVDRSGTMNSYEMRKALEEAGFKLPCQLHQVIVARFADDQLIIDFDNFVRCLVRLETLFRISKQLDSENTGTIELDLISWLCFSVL
Kind of assay: pig calpain II inhibitor potency, dose response, biochemical, fluorogenic peptide substrate (AID 1420). In kind it is functional.

Assay [14] concerns the target 72 kDa type IV collagenase (Homo sapiens, UniProt P08253). The experiment in a line: Dose Response validation of uHTS RPN11 inhibitor hits using a MMP-2 Fluorescence assay. The class given is functional.
In another assay the target is Prothrombin (Bos taurus, UniProt P00735). Kind of assay: thrombin inhibition, dose response, biochemical, fluorescence polarization, uHTS hits (AID 602369). In kind it is functional.
Assay [15] has as its target 26S proteasome non-ATPase regulatory subunit 14 (Homo sapiens, UniProt O00487). The experiment in a line: inhibition of proteasome subunit RPN11 – biochemical, fluorescence polarization, uHTS hits, confirmation (AID 602368). The class given is functional.
Assay [16] has as its target T5, Sentrin-specific protease 1 (Homo sapiens, UniProt Q9P0U3).
T5 sequence (Q9P0U3 whole entry): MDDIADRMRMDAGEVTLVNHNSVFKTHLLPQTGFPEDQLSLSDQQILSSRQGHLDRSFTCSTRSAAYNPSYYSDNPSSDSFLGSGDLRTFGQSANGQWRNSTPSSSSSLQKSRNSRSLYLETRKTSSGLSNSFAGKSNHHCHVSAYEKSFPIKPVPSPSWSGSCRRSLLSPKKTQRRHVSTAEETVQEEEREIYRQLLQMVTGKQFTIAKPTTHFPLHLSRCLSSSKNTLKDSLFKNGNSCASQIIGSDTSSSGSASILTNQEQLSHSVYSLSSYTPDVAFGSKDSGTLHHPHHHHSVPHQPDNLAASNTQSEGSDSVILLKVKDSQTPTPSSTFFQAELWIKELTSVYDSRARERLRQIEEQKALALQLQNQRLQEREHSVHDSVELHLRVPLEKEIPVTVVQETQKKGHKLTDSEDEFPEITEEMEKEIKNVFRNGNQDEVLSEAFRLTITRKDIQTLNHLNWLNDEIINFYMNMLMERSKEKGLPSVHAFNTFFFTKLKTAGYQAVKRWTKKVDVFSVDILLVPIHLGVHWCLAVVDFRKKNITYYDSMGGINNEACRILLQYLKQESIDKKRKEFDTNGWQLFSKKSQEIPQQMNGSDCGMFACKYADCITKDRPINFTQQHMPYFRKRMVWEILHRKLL
The experiment in a line: Dose response confirmation of small molecule inhibitors of the catalytic domain of the SUMO protease, SENP1 in a FRET assay. The settings on record: read-out: IC50_Mean. In kind it is functional.

Assay [17] has as its target T5, Sentrin-specific protease 1. The experiment in a line: potency of human SENP1 inhibitors, dose response, biochemical, kinetic FRET (AID 651697). The settings on record: read-out: IC50_Mean. The class given is functional.
Assay [18] has as its target G-protein coupled receptor 55 (Homo sapiens, UniProt Q9Y2T6). The experiment in a line: GPR55 antagonists blocking LPI-driven arrestin recruitment, primary screen, imaging, U2OS, beta-arrestin-GFP, LPI agonist (AID 2013).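 Note: antagonist potency measured as reduced agonist-driven arrestin aggregation.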 In kind it is functional.

Usually AC50 stands for the concentration at which the activity in the assay is half-maximal. The EC50 is the midpoint of the concentration-response curve.

The source made the active and inactive calls. Where only a bound is given, the exact number is not on record here.

T3 sequence (P98170 whole entry): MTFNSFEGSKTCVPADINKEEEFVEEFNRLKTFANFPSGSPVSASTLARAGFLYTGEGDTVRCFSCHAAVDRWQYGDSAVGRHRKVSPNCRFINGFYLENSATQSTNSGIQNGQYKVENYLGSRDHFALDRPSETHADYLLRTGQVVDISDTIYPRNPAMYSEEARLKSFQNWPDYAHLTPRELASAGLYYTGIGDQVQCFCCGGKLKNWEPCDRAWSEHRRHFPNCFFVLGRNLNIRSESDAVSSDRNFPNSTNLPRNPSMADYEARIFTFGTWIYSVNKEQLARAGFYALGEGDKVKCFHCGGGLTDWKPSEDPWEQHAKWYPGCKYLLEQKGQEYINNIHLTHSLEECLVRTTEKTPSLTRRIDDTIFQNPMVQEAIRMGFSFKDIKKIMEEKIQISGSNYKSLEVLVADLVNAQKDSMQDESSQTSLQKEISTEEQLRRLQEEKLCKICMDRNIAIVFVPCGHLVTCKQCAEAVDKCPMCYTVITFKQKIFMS
T1 sequence (Q00975 whole entry): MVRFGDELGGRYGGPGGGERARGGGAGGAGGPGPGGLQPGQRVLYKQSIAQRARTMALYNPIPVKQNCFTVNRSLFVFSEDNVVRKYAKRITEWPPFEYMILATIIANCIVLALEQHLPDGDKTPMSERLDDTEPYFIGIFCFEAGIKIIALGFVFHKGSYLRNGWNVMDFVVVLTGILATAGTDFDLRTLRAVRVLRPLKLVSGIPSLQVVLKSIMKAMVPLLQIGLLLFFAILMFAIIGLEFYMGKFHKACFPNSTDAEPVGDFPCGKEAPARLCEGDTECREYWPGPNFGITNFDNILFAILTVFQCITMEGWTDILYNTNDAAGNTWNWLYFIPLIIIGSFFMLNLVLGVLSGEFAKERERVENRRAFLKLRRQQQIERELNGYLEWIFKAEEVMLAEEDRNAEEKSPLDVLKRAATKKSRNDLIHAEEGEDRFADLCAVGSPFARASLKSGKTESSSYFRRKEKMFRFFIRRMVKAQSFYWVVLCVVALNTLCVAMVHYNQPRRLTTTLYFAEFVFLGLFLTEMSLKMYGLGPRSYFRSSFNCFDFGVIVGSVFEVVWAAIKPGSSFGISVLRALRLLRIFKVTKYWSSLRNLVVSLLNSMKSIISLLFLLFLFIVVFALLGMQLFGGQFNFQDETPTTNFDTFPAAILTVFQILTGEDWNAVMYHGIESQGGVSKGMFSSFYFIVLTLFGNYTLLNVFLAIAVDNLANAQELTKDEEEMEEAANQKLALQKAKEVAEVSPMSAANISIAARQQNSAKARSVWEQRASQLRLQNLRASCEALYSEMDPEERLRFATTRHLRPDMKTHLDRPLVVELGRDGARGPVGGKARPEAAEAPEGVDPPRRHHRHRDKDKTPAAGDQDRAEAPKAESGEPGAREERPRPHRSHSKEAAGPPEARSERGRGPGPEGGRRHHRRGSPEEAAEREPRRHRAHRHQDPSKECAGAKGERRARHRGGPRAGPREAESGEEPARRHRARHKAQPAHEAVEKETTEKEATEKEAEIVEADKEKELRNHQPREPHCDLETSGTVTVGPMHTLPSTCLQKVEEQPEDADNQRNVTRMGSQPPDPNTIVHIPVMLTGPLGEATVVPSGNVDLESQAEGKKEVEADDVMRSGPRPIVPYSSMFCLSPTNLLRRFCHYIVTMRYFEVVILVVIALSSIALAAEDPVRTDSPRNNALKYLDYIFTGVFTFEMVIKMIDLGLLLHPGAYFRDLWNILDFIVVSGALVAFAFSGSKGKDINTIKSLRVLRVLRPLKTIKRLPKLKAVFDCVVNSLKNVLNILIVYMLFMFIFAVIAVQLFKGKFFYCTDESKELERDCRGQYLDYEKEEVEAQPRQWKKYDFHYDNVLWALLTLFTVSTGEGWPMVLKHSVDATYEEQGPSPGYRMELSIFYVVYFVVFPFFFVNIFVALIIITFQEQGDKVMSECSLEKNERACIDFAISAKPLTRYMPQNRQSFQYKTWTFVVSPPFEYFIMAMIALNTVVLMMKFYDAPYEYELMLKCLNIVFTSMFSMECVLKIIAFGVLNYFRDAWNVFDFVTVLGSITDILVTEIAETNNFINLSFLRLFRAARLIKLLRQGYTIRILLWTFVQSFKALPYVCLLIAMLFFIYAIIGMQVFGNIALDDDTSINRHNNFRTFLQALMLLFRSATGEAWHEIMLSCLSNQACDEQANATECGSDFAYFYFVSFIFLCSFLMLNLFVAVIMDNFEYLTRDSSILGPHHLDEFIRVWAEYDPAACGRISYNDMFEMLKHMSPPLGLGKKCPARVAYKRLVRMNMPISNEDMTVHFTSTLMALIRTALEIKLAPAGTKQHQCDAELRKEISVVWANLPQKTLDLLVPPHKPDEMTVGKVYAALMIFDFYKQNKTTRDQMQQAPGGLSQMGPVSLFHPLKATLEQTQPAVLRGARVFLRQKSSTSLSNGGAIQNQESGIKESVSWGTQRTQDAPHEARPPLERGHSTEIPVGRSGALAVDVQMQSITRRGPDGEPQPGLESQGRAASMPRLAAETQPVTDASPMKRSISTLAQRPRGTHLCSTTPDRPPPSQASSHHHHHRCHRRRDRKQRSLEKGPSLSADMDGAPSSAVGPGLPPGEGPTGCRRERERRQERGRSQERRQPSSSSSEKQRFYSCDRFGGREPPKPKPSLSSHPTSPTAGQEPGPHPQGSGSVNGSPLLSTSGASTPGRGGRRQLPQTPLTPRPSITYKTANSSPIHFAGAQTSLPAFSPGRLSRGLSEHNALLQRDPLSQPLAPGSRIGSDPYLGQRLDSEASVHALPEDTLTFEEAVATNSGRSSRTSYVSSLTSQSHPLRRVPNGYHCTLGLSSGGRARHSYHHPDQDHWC
T1 sequence (Q02410 whole entry): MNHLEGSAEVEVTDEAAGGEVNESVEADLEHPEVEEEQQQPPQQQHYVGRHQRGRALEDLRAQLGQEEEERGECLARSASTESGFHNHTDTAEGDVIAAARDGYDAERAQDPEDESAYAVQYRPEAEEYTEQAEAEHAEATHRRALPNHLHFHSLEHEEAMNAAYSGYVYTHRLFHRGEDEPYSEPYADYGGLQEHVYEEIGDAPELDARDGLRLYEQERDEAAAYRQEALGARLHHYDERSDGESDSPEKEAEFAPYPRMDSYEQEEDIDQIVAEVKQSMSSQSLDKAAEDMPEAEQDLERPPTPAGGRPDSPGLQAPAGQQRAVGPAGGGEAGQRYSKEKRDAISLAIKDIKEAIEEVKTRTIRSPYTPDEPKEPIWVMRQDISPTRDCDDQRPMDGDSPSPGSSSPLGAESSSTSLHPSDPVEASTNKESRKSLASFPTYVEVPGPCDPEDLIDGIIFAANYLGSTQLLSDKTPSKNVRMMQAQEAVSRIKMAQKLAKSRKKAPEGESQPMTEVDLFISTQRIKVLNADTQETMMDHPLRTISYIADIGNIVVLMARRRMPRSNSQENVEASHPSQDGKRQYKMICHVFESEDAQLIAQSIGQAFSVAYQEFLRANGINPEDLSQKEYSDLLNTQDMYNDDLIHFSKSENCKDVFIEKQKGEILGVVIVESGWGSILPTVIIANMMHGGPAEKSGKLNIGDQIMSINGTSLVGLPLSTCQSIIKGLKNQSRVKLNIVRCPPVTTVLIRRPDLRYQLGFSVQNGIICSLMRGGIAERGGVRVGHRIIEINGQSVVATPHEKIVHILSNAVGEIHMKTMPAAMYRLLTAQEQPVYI
26S proteasome non-ATPase regulatory subunit 14, sequence (O00487 whole entry): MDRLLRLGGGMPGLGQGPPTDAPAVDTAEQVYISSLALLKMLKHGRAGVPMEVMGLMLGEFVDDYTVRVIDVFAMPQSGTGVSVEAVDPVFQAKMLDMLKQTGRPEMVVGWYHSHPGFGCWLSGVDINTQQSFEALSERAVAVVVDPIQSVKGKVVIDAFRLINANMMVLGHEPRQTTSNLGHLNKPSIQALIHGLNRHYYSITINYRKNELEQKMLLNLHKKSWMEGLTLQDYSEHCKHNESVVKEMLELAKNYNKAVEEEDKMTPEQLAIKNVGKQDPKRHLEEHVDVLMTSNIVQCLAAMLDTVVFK
72 kDa type IV collagenase, sequence (P08253 whole entry): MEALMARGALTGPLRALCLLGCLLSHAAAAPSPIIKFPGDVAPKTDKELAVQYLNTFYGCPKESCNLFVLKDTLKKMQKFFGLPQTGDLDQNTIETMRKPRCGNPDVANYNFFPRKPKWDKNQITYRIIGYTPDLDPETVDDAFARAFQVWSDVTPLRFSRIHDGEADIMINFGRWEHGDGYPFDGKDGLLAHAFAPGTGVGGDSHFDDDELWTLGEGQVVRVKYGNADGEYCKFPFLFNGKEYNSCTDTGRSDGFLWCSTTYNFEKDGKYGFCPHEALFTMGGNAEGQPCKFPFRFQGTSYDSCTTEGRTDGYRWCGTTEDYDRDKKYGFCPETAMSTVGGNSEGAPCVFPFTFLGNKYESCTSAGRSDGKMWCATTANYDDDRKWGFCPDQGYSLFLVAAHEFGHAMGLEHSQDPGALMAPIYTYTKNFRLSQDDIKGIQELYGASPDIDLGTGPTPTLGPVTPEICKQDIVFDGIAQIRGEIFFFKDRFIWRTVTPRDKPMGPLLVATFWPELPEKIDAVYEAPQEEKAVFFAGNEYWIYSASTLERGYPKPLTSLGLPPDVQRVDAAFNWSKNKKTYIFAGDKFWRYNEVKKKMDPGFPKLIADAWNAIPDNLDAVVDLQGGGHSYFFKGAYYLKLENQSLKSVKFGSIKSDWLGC
Induced myeloid leukemia cell differentiation protein Mcl-1, sequence (Q07820 whole entry): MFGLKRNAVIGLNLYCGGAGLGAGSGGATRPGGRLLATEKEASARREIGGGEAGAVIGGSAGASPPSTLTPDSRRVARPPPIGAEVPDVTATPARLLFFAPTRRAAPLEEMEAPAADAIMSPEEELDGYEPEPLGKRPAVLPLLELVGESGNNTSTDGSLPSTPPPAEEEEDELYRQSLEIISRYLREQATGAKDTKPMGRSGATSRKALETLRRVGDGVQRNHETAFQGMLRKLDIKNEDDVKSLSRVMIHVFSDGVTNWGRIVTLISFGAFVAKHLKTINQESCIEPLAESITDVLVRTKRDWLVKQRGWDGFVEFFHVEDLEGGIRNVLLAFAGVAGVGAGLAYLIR

Regarding `Cc1c2c(=O)n(-c3nc4ccccc4s3)nc-2cc(O)n1Cc1ccccc1`, the IC50 in [1] is > 50 µM (inactive); in assay [2], 3.01 µM (active); in assay [3], 17.4 µM (active); in assay [4], 4.32 µM (active). Also, in [5], the AC50 was 20.5 µM (active).
Consider `O=C(CSc1nc[nH]n1)NCCc1ccccc1`, for which the EC50 in [6] was > 100 µM (inactive).
Turning to `Cc1ccc(/C=C/C(=O)N2CCN(c3ncccn3)CC2)o1`, the IC50 in [1] was 4.77 µM (active); in [2] it was 4.71 µM (active); in assay [7] it was > 56.8 µM (inactive).
For `O=C(CSc1ncnc2c1oc1ccccc12)NCc1ccc(F)cc1`, the EC50 in [8] is 20.5 µM (not active); in [9], 21.9 µM (inactive); in assay [10], 83.1 µM (not active).
Consider `COc1cc2cnc(Cl)nc2cc1OC`, for which the IC50 was > 100 µM (not active) in assay [11] and > 100 µM (inactive) in assay [12].
In the case of `O=C(NCCSCc1ccccc1)c1ccc(C2SCC(=O)N2Cc2ccccc2)cc1` (stereo not drawn), the IC50 in assay [13] is 4.77 µM (not active); in assay [14], > 100 µM (inactive); on Prothrombin, 50.5 µM (active); in assay [15], 37.5 µM (active); in [16], 19.1 µM (active); in assay [17], 11 µM (active). Besides, the IC50 in assay [18] is 1.49 µM (active).
As for `Nc1ncnc(Sc2ccc(Cl)cc2)c1[N+](=O)[O-]`, the values for the IC50 in [11] and in [12] were > 100 µM (not active) and > 100 µM (inactive), respectively.
